Data: ChEMBL document CHEMBL4419171, “SMAC mimetic compounds as apoptosis inducers” (2013)

Legend:
Type in all cases: functional
HL-60 = assay: Cytotoxicity against human HL60 cells assessed as cell viability at 10 nM in presence of 100 ng/ml cisplatin incubated for 72 hrs by WST1 dye based assay relative to control
K562 [1] = assay: Cytotoxicity against human K562 cells assessed as cell viability at 10 nM in presence of 10 ng/ml cisplatin incubated for 72 hrs by WST1 dye based assay relative to control
K562 [2] = assay: Cytotoxicity against human K562 cells assessed as cell viability at 0.1 nM in presence of 100 ng/ml cisplatin incubated for 72 hrs by WST1 dye based assay relative to control
K562 [3] = assay: Cytotoxicity against human K562 cells assessed as cell viability at 100 nM in presence of 100 nM taxol incubated for 72 hrs by WST1 dye based assay relative to control; settings: K562, 72 h, read-out: Activity

Row | Structure (SMILES) | Activity (HL-60) | Activity (K562 [1]) | Activity (K562 [2]) | viability at 0.1 µM (K562 [3])
1 | CC[C@H](N)C(=O)N[C@@H]1C(=O)N2[C@@H](CC[C@@H]1CO)CC[C@H]2C(=O)NC(c1ccccc1)c1ccccc1.O=C(O)C(F)(F)F | 43% | 48% | – | –
2 | CC[C@H](N)C(=O)N[C@@H]1C(=O)N2[C@@H](CC[C@@H]1Cn1cc(CO[C@H](C)[C@H](NC(=O)[C@H](C)NC)C(=O)N3CCC[C@H]3Cn3nnnc3Sc3ccccc3)nn1)CC[C@H]2C(=O)NC(c1ccccc1)c1ccccc1.O=C(O)C(F)(F)F | – | – | 30% | 27%
